Active and inactive are the calls of the source. No stated cut-off is given here; in the data, actives have a measured IC50 and inactives only a lower limit.
How the values were obtained:
Format in all cases: functional
[1] = target: T1, Sentrin-specific protease 6 (Homo sapiens, UniProt Q9GZR1); experiment: SAR Analysis of small molecule inhibitors of Sentrin-specific protease 6 (SENP6) using a Luminescent assay. [Related pubchem assays (depositor defined):AID2582, AID2599]
T1 sequence (Q9GZR1 whole entry): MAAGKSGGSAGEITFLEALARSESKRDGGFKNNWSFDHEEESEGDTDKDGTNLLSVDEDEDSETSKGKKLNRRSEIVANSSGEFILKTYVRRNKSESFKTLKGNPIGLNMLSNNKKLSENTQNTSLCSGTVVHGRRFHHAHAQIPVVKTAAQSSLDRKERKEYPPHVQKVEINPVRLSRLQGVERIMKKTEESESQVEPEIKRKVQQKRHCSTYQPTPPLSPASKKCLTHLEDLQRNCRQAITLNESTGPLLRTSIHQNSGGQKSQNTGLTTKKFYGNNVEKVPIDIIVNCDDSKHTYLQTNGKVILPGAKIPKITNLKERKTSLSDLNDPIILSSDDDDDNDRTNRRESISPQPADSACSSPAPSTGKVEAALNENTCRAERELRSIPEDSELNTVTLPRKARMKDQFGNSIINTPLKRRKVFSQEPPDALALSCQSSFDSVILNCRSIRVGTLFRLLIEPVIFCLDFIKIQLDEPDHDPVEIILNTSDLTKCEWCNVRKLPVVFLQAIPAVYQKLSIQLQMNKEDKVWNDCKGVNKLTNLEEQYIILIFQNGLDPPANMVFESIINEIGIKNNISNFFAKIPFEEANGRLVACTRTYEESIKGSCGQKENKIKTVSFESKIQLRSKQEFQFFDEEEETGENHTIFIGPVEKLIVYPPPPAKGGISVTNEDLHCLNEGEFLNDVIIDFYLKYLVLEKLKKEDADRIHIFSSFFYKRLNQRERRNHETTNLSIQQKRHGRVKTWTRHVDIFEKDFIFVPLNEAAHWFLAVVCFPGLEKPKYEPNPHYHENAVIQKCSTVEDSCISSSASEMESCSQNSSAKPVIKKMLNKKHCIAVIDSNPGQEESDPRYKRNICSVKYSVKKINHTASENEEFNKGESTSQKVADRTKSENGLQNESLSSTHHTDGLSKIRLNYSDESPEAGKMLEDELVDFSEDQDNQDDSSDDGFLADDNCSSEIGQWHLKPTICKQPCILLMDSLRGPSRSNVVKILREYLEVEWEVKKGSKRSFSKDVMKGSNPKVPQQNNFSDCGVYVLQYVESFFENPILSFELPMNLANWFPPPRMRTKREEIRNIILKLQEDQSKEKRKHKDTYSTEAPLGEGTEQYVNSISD

[2] = target: T2, Caspase-3 (Homo sapiens, UniProt P42574); experiment: SAR Analysis of small molecule inhibitors of Sentrin-specific proteases (SENPs) using a Caspase-3 Selectivity assay. [Related pubchem assays (depositor defined):AID2540, AID2599, AID434973, AID489001]
T2 sequence (P42574 whole entry): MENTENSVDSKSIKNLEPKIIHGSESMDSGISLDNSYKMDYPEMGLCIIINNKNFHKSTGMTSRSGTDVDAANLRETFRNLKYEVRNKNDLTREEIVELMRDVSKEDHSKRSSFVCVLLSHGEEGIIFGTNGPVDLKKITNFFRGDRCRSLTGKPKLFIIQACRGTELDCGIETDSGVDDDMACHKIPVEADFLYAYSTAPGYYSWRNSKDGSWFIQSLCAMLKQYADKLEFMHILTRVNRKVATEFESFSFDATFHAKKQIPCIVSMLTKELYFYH

[3] = target: T3, Sentrin-specific protease 7 (Homo sapiens, UniProt Q9BQF6); experiment: SENP7 protease inhibitors, SAR follow-up, biochemical, luminescence (AID 504497)
T3 sequence (Q9BQF6 whole entry): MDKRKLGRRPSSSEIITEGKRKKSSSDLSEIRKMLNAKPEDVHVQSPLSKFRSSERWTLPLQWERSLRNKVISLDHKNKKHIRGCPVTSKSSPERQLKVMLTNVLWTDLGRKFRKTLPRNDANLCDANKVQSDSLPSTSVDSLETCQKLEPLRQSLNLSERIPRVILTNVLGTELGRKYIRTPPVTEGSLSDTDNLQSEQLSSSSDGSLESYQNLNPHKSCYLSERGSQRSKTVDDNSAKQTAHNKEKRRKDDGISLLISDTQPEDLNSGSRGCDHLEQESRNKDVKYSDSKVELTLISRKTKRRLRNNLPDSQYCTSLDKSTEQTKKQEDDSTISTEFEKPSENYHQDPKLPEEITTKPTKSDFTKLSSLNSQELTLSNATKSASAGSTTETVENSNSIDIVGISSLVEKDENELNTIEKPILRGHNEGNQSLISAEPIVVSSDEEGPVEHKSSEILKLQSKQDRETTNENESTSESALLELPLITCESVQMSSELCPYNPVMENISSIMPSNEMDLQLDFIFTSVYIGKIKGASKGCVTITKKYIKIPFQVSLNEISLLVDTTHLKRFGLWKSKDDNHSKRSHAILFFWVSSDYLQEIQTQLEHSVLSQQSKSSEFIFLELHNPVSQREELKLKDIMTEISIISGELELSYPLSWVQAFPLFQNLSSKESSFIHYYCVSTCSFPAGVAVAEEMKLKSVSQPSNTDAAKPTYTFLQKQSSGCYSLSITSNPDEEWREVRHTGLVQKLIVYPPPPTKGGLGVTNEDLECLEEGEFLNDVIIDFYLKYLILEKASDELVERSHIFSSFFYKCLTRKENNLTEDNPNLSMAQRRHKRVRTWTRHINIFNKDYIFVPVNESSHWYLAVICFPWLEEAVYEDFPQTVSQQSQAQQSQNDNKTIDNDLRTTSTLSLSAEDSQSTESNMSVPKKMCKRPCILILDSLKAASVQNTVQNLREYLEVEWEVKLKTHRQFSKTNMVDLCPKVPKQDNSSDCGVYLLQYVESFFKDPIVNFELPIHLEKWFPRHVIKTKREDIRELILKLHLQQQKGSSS

[4] = target: T4, Sentrin-specific protease 8 (Homo sapiens, UniProt Q96LD8); experiment: SENP8 protease inhibitors, SAR follow-up, biochemical, luminescence (AID 504501)
T4 sequence (Q96LD8 whole entry): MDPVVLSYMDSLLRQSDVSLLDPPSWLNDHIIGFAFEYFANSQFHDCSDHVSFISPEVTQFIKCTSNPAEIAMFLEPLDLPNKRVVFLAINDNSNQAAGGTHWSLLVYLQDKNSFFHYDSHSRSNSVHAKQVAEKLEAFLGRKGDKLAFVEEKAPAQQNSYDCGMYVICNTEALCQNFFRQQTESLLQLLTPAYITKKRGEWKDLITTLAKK

Measured: IC50

Clc1cccc(/N=C/c2ccc(OC3CSC3)cc2)c1
inactive: [1] > 99 µM | [2] > 99 µM | [3] > 99 µM | [4] > 99 µM
